As usually defined, the IC50 is the midpoint of a concentration-inhibition curve. The term melting point denotes the temperature, or range, at which the solid turns liquid.

Where only a bound is given, the exact number is not on record here.

The subject of data set [1] is MCF−7 (human breast adenocarcinoma). The data set is described as follows: MTT cytotoxicity assay, MCF-7 cells. Format: cell-based. Particulars: MCF7, 48 h incubation, mean ± SD, triplicate. How it is done: The cytotoxic effect on cells was determined by the colorimetric method of cell proliferation—MTT test. […] C. Formazan crystals were added to 100 µL of DMSO. The optical density was recorded at 540 nm on an Invitrologic microplate reader (Novosibirsk, Russia). The experiments for all compounds were repeated three times.
In general terms: Formazan colour is commonly taken as a measure of viable cells.

For data set [2], the system named is M-HeLa clone 11 (epithelioid carcinoma of the cervix, subline HeLa, clone M-HeLa). As to the kind of experiment: MTT cytotoxicity assay, M-HeLa cells. To be noted: for IC50: Homo sapiens, M-HeLa, MTT, 48 h incubation, mean ± SD, triplicate; for selectivity index (SI): ratio between IC50 for normal cells and IC50 for tumor cells, with respect to M-HeLa cell line. The data set is classed as cell-based. The source says: (§1) For the experiments, the tumor cell cultures of M-HeLa clone 11 (epithelioid carcinoma of the cervix, subline HeLa., clone M-HeLa), HuTu 80, human duodenal adenocarcinoma, MCF7—human breast adenocarcinoma (pleural fluid) collected from the Institute of Cytology, Russian Academy of Sciences (St. Petersburg, Russia); PC3—prostate adenocarcinoma cell line collected from ATCC (American Type Cell Collection, Manassas, VA, USA; CRL 1435; human liver cells (Chang liver) and the Research Institute of Virology of the Russian Academy of Medical Sciences (Moscow, Russia) were used for cytotoxicity analysis.
(§2) The cytotoxic effect on cells was determined by the colorimetric method of cell proliferation—MTT test. The cells were seeded on a 96-well Nunc plate at a concentration of 5 × 10^3 cells per well in a volume of 100 µL of medium and cultured in a CO2 incubator at 37 °C until a monolayer was formed. Then, the nutrient medium was removed and 100 μL of the test drug solution in these dilutions was added to the wells prepared directly in the nutrient medium with the addition of 5% DMSO to improve solubility. After 48 h of cell incubation with test compounds, the nutrient medium was removed from the plates and 100 μL of serum-free nutrient medium with MTT at a concentration of 0.5 mg/mL was added and incubated for 4 h at 37 °C. C. Formazan crystals were added to 100 µL of DMSO. The optical density was recorded at 540 nm on an Invitrologic microplate reader (Novosibirsk, Russia). The experiments for all compounds were repeated three times.

For data set [3], the system named is PC3 (prostate adenocarcinoma cell line). The data set is described as follows: MTT cytotoxicity assay, PC3 cells. Format: cell-based. To be noted: Homo sapiens, PC-3, 48 h incubation, mean ± SD, triplicate.
From the text: as §1, §2

Data set [4] has as its system HuTu 80 (human duodenal adenocarcinoma). The data set is described as follows: MTT cytotoxicity assay, HuTu 80 cells. Format: cell-based. To be noted: for IC50: Homo sapiens, HuTu80, MTT, 48 h incubation, mean ± SD, triplicate.
From the text: as §1, §2

The subject of data set [5] is Chang liver (HeLa derivative), human liver cells. The data set is described as follows: MTT cytotoxicity assay, normal Chang liver cells. The data set is classed as cell-based. Particulars: for IC50: Homo sapiens, HeLa, MTT, 48 h incubation, mean ± SD, triplicate, read-out: IC50 (µM) Chang Liver (HeLa), normal cell line.
From the text: as §1, §2

Regarding `COc1cccc(/C=c2\sc3n(c2=O)C(c2ccc(C)cc2)C(C(C)=O)=C(C)N=3)c1O` (stereo not shown) [Compound 1, 6-Acetyl-(Z)−2-(2-hydroxy−3-methoxybenzylidene)−7-methyl−5-(p-tolyl)−2H-thiazolo[3,2-a]pyrimidine−3(5H)-one], the melting point was in the range of 209 to 211 °C. This molecule also had an IC50 in data set [1] greater than 100 µM. Further, half-maximal inhibition in data set [2] (IC50) was put at 88 ± 7 µM. Further, the IC50 in data set [3] came out at 57.4 ± 4.5 µM. Also, inhibition in data set [4] was half-maximal at 88 ± 6.9 µM (IC50). The IC50 in data set [5] was greater than 100 µM.
`CCOC(=O)C1=C(C)N=c2s/c(=C\c3cccc(OC)c3O)c(=O)n2C1c1ccccc1` (stereo not shown) [Compound 4, Ethyl (Z)−2-(2-hydroxy−3-methoxybenzylidene)−7-methyl−5-phenyl−3-oxo−2,3-dihydro−5H-thiazolo[3,2-a]pyrimidine−6-carboxylate]: the melting point lay within 231 to 233 °C. For the same molecule, in data set [1], the IC50 is greater than 100 µM. This molecule gave an IC50 in data set [2] greater than 100 µM. The same molecule yielded an IC50 in data set [3] greater than 100 µM. The molecule also showed an IC50 in data set [4] greater than 100 µM. The IC50 in data set [5] was greater than 100 µM.
`CCOC(=O)C1=C(C)N=c2s/c(=C\c3cccc(OC)c3O)c(=O)n2C1c1cccc([N+](=O)[O-])c1` (stereo not shown) [Compound 2, Ethyl (Z)−2-(2-hydroxy−3-methoxybenzylidene)−7-methyl−5-(3-nitrophenyl)−3-oxo−2,3-dihydro−5H-thiazolo[3,2-a]pyrimidine−6-carboxylate]: the melting point was in the range of 206 to 208 °C. Also, in data set [1], half-maximal inhibition (IC50) required 72 ± 5.8 µM. Moreover, in data set [2], the “cytotoxicity against M-HeLa (in words)” value is on record as “high cytotoxicity”, half-maximal inhibition (IC50) was put at 16.2 ± 1.3 µM and the “selectivity index (SI)” value was “higher than 6”. Besides, the “efficiency of cytotoxicity towards M-HeLa compared to Sorafenib” value in data set [2] (relative to reference drug Sorafenib) is reported as “two times higher”. The IC50 in data set [3] was greater than 100 µM. Besides, in data set [4], the IC50 came to 90 ± 8 µM. For the same molecule, in data set [5], the “activity on normal cells, Chang liver (in words)” value was “low biological activity” and the IC50 was greater than 100 µM.
`CCOC(=O)C1=C(C)N=c2s/c(=C\c3cccc(OC)c3O)c(=O)n2C1c1ccc(Br)cc1` (stereo not shown) [Compound 6, Ethyl 5-(4-bromophenyl)-(Z)−2-(2-hydroxy−3-methoxybenzylidene)−7-methyl−3-oxo−2,3-dihydro−5H-thiazolo[3,2-a]pyrimidine−6-carboxylate] returned a melting point of 234 to 236 °C. This molecule registered an IC50 in data set [1] greater than 100 µM. For the same molecule, the IC50 in data set [2] was found to be 85 ± 7.8 µM. The same molecule displayed an IC50 in data set [3] of 100 ± 8.6 µM. This molecule registered an IC50 in data set [4] of 90.3 ± 8.1 µM. The IC50 in data set [5] stood at 64.2 ± 5.1 µM.
`CCOC(=O)C1=C(C)N=c2s/c(=C\c3cccc(OC)c3O)c(=O)n2C1c1cccc(Br)c1` (stereo not shown) [Compound 5, Ethyl 5-(3-bromophenyl)-(Z)−2-(2-hydroxy−3-methoxybenzylidene)−7-methyl−3-oxo−2,3-dihydro−5H-thiazolo[3,2-a]pyrimidine−6-carboxylate]: the melting point was 190 to 192 °C. The molecule also yielded an IC50 in data set [1] greater than 100 µM. Besides, the IC50 in data set [2] is greater than 100 µM. The same molecule gave an IC50 in data set [3] greater than 100 µM. For the same molecule, in data set [4], the “cytotoxicity towards HuTu 80 (in words)” value is “Moderate cytotoxicity” and the IC50 was determined as 43.3 ± 3.4 µM. Moreover, in data set [5], the “activity on normal cells, Chang liver (in words)” value is “Moderate cytotoxicity” and the IC50 was found to be 51.4 ± 4.1 µM.
`CCOC(=O)C1=C(C)N=c2s/c(=C\c3cccc(OC)c3O)c(=O)n2C1c1ccccc1OC` (stereo not shown) [Compound 3, Ethyl (Z)-2-(2-hydroxy-3-methoxybenzylidene)-7-methyl-5-(2-methoxyphenyl)-3-oxo-2,3-dihydro-5H-thiazolo[3,2-a]pyrimidine-6-carboxylate] had a melting point of 193 to 195 °C. Also, the IC50 in data set [1] is greater than 100 µM. The molecule also registered an IC50 in data set [2] of 98.1 ± 7.7 µM. Moreover, the midpoint of inhibition in data set [3], the IC50, lay at 54.1 ± 4.3 µM. In addition, the IC50 in data set [4] was greater than 100 µM. Further, the IC50 in data set [5] came out at 96 ± 7.5 µM.
For `CNC(=O)c1cc(Oc2ccc(NC(=O)Nc3ccc(Cl)c(C(F)(F)F)c3)cc2)ccn1` [Sorafenib, reference compound], the figures for the IC50 in data set [2], in data set [3] and in data set [4] were 25 ± 1.8 µM, 12.7 ± 1.1 µM and 13 ± 1.2 µM, respectively. Moreover, the “selectivity index (SI)” value in data set [2] is on record as “lower than 1”.

For the origin of these results see publication PMC9917025, “(2-Hydroxy-3-Methoxybenzylidene)thiazolo[3,2-a]pyrimidines: Synthesis, Self-Assembly in the Crystalline Phase and Cytotoxic Activity” (International Journal of Molecular Sciences, 2023).
